Source: patent publication US12568972B2, “Pyridazinol compounds and derivatives, preparation methods, herbicidal compositions and applications thereof” (Qingdao Kingagroot Chemical Compound Co., Ltd., priority 2018, dated 2026)

Columns and labels:
Test in all cases: Post-emergence test, weed control effect
Format in all cases: in vivo
Details in all cases: after 3 weeks
[1] = system: Amaranthus retroflexus
How it was run: (§1)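 Scores use a 0 (no effect) to 10 (dead) scale of fresh-weight inhibition, assessed 3 weeks after spraying. Treatment was at the 2-3 leaf stage, 2-3 weeks post-sowing, using acetone/Tween-80/water solutions with 80% vegetable oil methyl ester synergist at 1500 g/ha.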

[2] = system: Veronica polita
How it was run: as §1

[3] = system: Chenopodiaceae
How it was run: as §1

[4] = system: Rorippa indica
How it was run: as §1

CSCCC(=O)Oc1cc(C(F)(F)F)nnc1-c1ccc(F)c(F)c1 [Compound 1-77]
10: weed control effect, Amaranthus retroflexus (activity level) ([1]; Dose 3000 g/ha) | weed control effect, Veronica polita (activity level) ([2]; Dose 3000 g/ha) | weed control effect, Chenopodiaceae (activity level) ([3]; Dose 3000 g/ha) | weed control effect, Rorippa indica (activity level) ([4]; Dose 3000 g/ha)

Cn1ncc(OCc2ccccc2)c1-c1nnc(C(F)(F)F)cc1O [Compound 813]
10: weed control effect (activity level), Amaranthus retroflexus ([1]; Dose 3000 g/ha) | weed control effect (activity level), Veronica polita ([2]; Dose 3000 g/ha) | weed control effect (activity level), Chenopodiaceae ([3]; Dose 3000 g/ha) | weed control effect (activity level), Rorippa indica ([4]; Dose 3000 g/ha)

Cn1ccnc1S(=O)(=O)Oc1cc(C(F)(F)F)nnc1-c1cccc(F)c1 [Compound 1-150]
10: weed control effect, Amaranthus retroflexus (activity level) ([1]; Dose 3000 g/ha) | weed control effect, Veronica polita (activity level) ([2]; Dose 3000 g/ha) | weed control effect, Chenopodiaceae (activity level) ([3]; Dose 3000 g/ha) | weed control effect, Rorippa indica (activity level) ([4]; Dose 3000 g/ha)

CC(Cl)C(=O)Oc1cc(C(F)(F)F)nnc1-c1ccc(C(F)(F)F)cc1 (stereo not drawn) [Compound 1-22]
10: weed control effect, Amaranthus retroflexus (activity level) ([1]; Dose 3000 g/ha) | weed control effect, Veronica polita (activity level) ([2]; Dose 3000 g/ha) | weed control effect, Chenopodiaceae (activity level) ([3]; Dose 3000 g/ha) | weed control effect, Rorippa indica (activity level) ([4]; Dose 3000 g/ha)

Cn1nc(OCc2ccccc2)cc1-c1nnc(C(F)(F)F)cc1O [Compound 784]
10: weed control effect (activity level), Amaranthus retroflexus ([1]; Dose 3000 g/ha) | weed control effect (activity level), Veronica polita ([2]; Dose 3000 g/ha) | weed control effect (activity level), Chenopodiaceae ([3]; Dose 3000 g/ha) | weed control effect (activity level), Rorippa indica ([4]; Dose 3000 g/ha)

O=C(Oc1cc(C(F)(F)F)nnc1-c1ccc(F)cc1)c1ccc2ccccc2c1 [Compound 1-114]
10: weed control effect, Amaranthus retroflexus (activity level) ([1]; Dose 3000 g/ha) | weed control effect, Veronica polita (activity level) ([2]; Dose 3000 g/ha) | weed control effect, Chenopodiaceae (activity level) ([3]; Dose 3000 g/ha) | weed control effect, Rorippa indica (activity level) ([4]; Dose 3000 g/ha)

Oc1cc(C(F)(F)F)nnc1-c1cc(Cl)cc(Cl)c1 [Compound 40]
10: weed control effect (activity level), Amaranthus retroflexus ([1]; dose 1000 g/ha) | weed control effect (activity level), Veronica polita ([2]; dose 1000 g/ha) | weed control effect (activity level), Chenopodiaceae ([3]; dose 1000 g/ha) | weed control effect (activity level), Rorippa indica ([4]; dose 1000 g/ha)

CCCCCCCCC(=O)Oc1cc(C(F)(F)F)nnc1-c1cccc(Br)c1 [Compound 1-15]
10: weed control effect, Amaranthus retroflexus (activity level) ([1]; Dose 3000 g/ha) | weed control effect, Veronica polita (activity level) ([2]; Dose 3000 g/ha) | weed control effect, Chenopodiaceae (activity level) ([3]; Dose 3000 g/ha) | weed control effect, Rorippa indica (activity level) ([4]; Dose 3000 g/ha)

Oc1cc(C(F)(F)F)nnc1-c1cccc(C(F)(F)F)c1F [Compound 761]
10: weed control effect (activity level), Amaranthus retroflexus ([1]; Dose 3000 g/ha) | weed control effect (activity level), Veronica polita ([2]; Dose 3000 g/ha) | weed control effect (activity level), Chenopodiaceae ([3]; Dose 3000 g/ha) | weed control effect (activity level), Rorippa indica ([4]; Dose 3000 g/ha)

Oc1cc(C(F)(F)F)nnc1-c1cccc(Cl)c1Cl [Compound 42]
10: weed control effect (activity level), Amaranthus retroflexus ([1]; dose 1000 g/ha) | weed control effect (activity level), Veronica polita ([2]; dose 1000 g/ha) | weed control effect (activity level), Chenopodiaceae ([3]; dose 1000 g/ha) | weed control effect (activity level), Rorippa indica ([4]; dose 1000 g/ha)

O=C(/C=C/c1ccc(Cl)cc1)Oc1cc(C(F)(F)F)nnc1-c1ccc(F)cc1 [Compound 1-97]
10: weed control effect, Amaranthus retroflexus (activity level) ([1]; Dose 3000 g/ha) | weed control effect, Veronica polita (activity level) ([2]; Dose 3000 g/ha) | weed control effect, Chenopodiaceae (activity level) ([3]; Dose 3000 g/ha) | weed control effect, Rorippa indica (activity level) ([4]; Dose 3000 g/ha)

CCCCCCCOC(=O)Oc1cc(C(F)(F)F)nnc1-c1ccc(Cl)c(Cl)c1Cl [Compound 1-38]
10: weed control effect, Amaranthus retroflexus (activity level) ([1]; Dose 3000 g/ha) | weed control effect, Veronica polita (activity level) ([2]; Dose 3000 g/ha) | weed control effect, Chenopodiaceae (activity level) ([3]; Dose 3000 g/ha) | weed control effect, Rorippa indica (activity level) ([4]; Dose 3000 g/ha)

Cc1cc(-c2nnc(C(F)(F)F)cc2O)cnc1F [Compound 219]
10: weed control effect (activity level), Amaranthus retroflexus ([1]; dose 2000 g/ha) | weed control effect (activity level), Veronica polita ([2]; dose 2000 g/ha) | weed control effect (activity level), Chenopodiaceae ([3]; dose 2000 g/ha) | weed control effect (activity level), Rorippa indica ([4]; dose 2000 g/ha)

CCc1cccc(-c2nnc(C(F)(F)F)cc2OS(=O)(=O)c2nc3ccccc3[nH]2)c1 [Compound 1-153]
10: weed control effect, Amaranthus retroflexus (activity level) ([1]; Dose 3000 g/ha) | weed control effect, Veronica polita (activity level) ([2]; Dose 3000 g/ha) | weed control effect, Chenopodiaceae (activity level) ([3]; Dose 3000 g/ha) | weed control effect, Rorippa indica (activity level) ([4]; Dose 3000 g/ha)

Oc1cc(C(F)(F)F)nnc1-c1cnc(F)cc1Cl [Compound 1001]
10: weed control effect (activity level), Amaranthus retroflexus ([1]; Dose 3000 g/ha) | weed control effect (activity level), Veronica polita ([2]; Dose 3000 g/ha) | weed control effect (activity level), Chenopodiaceae ([3]; Dose 3000 g/ha) | weed control effect (activity level), Rorippa indica ([4]; Dose 3000 g/ha)

Oc1cc(C(F)(F)F)nnc1-c1cc(F)cc(Cl)c1 [Compound 46]
10: weed control effect (activity level), Amaranthus retroflexus ([1]; dose 1000 g/ha) | weed control effect (activity level), Veronica polita ([2]; dose 1000 g/ha) | weed control effect (activity level), Chenopodiaceae ([3]; dose 1000 g/ha) | weed control effect (activity level), Rorippa indica ([4]; dose 1000 g/ha)

O=S(=O)(Oc1cc(C(F)(F)F)nnc1-c1ccc(F)c(F)c1)c1ccc(Cl)cc1 [Compound 1-130]
10: weed control effect, Amaranthus retroflexus (activity level) ([1]; Dose 3000 g/ha) | weed control effect, Veronica polita (activity level) ([2]; Dose 3000 g/ha) | weed control effect, Chenopodiaceae (activity level) ([3]; Dose 3000 g/ha) | weed control effect, Rorippa indica (activity level) ([4]; Dose 3000 g/ha)

CCC(=O)Oc1cc(C(F)(F)F)nnc1-c1ccc(F)c(F)c1 [Compound 1-3]
10: weed control effect, Amaranthus retroflexus (activity level) ([1]; Dose 3000 g/ha) | weed control effect, Veronica polita (activity level) ([2]; Dose 3000 g/ha) | weed control effect, Chenopodiaceae (activity level) ([3]; Dose 3000 g/ha) | weed control effect, Rorippa indica (activity level) ([4]; Dose 3000 g/ha)
